We go through 1 compound from PMC3755734 (Angewandte Chemie (International ed. in English), 2011).

What all share (type): biochemical
One experiment deals with CKIε (Homo sapiens, UniProt P49674). Description: in vitro kinase assay.
Another experiment concerns the target T1, CKIα (Homo sapiens, UniProt P48729).
T1 sequence (P48729 2-337): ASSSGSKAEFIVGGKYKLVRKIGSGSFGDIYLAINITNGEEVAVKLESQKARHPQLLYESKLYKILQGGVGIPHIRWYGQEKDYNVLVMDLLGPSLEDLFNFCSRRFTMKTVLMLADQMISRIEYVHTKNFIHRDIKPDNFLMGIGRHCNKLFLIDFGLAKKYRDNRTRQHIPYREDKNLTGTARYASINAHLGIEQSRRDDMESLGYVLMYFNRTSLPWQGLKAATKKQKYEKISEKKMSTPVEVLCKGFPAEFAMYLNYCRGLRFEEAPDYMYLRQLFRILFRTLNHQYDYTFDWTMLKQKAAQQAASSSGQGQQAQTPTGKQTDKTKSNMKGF
As to the kind of experiment: in vitro kinase assay.

The target of experiment [1] is casein kinase 1 delta (CKIδ) (Homo sapiens, UniProt P48730). As to the kind of experiment: in vitro kinase assay IC50.

SMILES strings stand for the structures.

CKIε, sequence (P49674 whole entry): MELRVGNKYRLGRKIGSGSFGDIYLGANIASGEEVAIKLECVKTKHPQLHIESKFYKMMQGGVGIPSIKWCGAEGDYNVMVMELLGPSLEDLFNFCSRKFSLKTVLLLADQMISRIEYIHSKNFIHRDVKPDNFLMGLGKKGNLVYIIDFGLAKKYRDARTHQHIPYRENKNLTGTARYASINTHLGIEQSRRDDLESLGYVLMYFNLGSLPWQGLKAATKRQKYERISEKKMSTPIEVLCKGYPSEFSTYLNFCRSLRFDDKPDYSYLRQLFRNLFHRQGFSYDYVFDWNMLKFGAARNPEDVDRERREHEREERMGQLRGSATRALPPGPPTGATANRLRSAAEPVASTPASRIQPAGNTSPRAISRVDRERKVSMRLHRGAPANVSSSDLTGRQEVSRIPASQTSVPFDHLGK
casein kinase 1 delta (CKIδ), sequence (P48730 whole entry): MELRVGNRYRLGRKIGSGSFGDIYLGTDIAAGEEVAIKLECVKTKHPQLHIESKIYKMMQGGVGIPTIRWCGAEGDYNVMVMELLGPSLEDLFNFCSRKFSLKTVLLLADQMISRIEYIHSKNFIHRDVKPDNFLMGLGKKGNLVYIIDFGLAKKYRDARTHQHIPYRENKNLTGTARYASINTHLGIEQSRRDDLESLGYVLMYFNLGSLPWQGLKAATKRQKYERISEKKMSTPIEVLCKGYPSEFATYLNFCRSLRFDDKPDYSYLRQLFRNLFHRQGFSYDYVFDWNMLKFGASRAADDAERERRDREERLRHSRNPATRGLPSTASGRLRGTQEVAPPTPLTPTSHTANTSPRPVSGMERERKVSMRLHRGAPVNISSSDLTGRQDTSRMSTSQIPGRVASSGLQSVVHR

As a reminder, the IC50 is the midpoint of a concentration-inhibition curve. High values mean a need for much substance, low ones inhibition by little substance. On to `Cc1cc2sc(NC(=O)Cc3ccccc3)nc2cc1Cl` [LH846], for which the IC50 against CKIε amounted to 1300 nM; at CKIα it was 2500 nM; in experiment [1] it was 290 nM.
